Results: US20140221499A1, “NOVEL RODENT CONTROL AGENTS AND USES THEREOF” (priority 2011, published 2014)

Legend:
TAAR1 = TAAR1 (Mus musculus, UniProt Q923Y8); assay: TAAR1 reporter gene assay; type: cell-based
Description: HEK293 cells were co-transfected with TAAR expression plasmids and a cAMPdependent reporter gene encoding secreted alkaline phosphatase (CRE-SEAP). Transfected cells were incubated with urine extracts from different mammalian species, and phosphatase activity was quantified with a fluorescent substrate as a reporter for TAAR activation. […] Responses to predator odors were not observed in control cells transfected with reporter gene alone. Three other TAARs-TAAR7f, TAAR8c, and TAAR9-detected natural products common to urine of numerous mammalian species, including mouse, rat, human, and carnivores (FIG. 1B, FIG. 11). However, these receptors detect carnivore and non-carnivore urines with similar sensitivity. We reasoned that TAAR4 detected a specific chemical enriched in predator urine, and that this cue can function as a kairomone. […] Basic dichloromethane extracts of bobcat urine were separated by silica gel chromatography, and fractions analyzed with the reporter gene assay (FIG. 2A). Several chromatography fractions containing the TAAR4 activator were obtained and analyzed by mass spectrometry (FIG. 2B).
TAAR functional assays. […] SEAP activity is measured as fluorescence resulting from dephosphorylation of a substrate, 4-methylumbelliferyl phosphate. Fluorescence values were obtained using an EnVision plate reader (Perkin Elmer) and are reported directly without normalization. […]

Sprague-Dawley rats = assay: Open field odor avoidance; type: in vivo, rat; conditions: ten minute exposure, 12 animals ±SEM; 1 ml urine or 5 μl amine
Description: We next examined behavioral responses of rodents to 2-phenylethylamine. […] Behaviors of rats in a square-shaped arena were recorded and analyzed following placement of test stimuli in a pseudorandom corner (FIG. 5A). […] Thus, 2-phenylethylamine, in the absence of other predator odor cues, was sufficient to evoke rat avoidance behavior.
Open field behavioral analysis. Rat behavioral responses to odors in the open field were measured as described previously (Fendt M (2006) Exposure to urine of canids and felids, but not of herbivores, induces defensive behavior in laboratory rats. Journal of chemical ecology 32(12):2617-2627) with the following modifications. Adult Sprague-Dawley rats (240-340 g; Janvier, Le Genest St. Isle, France) were placed in the center of a 45 cm×45 cm Plexiglass arena (TSE Systems, Bad Homburg, Germany) equipped with infrared sensors (distance 14 mm, illumination 80-120 lux). The arena contained glass dishes (36 mm) in each corner, with one dish containing test stimuli. Prior to testing, animals were habituated to the arena by introducing them for three consecutive days. […] Location of the rats was automatically recorded using the infrared detectors and analyzed (TSE Systems software). Statistical significance was measured using Wilcoxon Signed Test (**p<0.01; comparison with chance level (25%)). […]

Sequence of TAAR1 (Q923Y8 whole entry, the tested form may be a part): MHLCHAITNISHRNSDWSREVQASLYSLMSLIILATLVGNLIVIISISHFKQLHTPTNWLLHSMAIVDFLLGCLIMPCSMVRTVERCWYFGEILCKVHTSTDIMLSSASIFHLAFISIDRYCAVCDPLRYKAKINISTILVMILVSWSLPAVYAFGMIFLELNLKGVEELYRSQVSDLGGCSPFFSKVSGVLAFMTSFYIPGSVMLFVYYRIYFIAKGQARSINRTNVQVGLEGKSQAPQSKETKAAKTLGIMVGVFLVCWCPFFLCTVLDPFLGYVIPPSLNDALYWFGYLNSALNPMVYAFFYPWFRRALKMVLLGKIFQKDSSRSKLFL

NCCc1ccccc1 [2-phenylethylamine]
TAAR1 activation (TAAR1): did activate TAAR1
percentage of time rats are located in the odor quadrant (Sprague-Dawley rats): 8.0±2.0%
